The compounds below were run against T1, IRAK4 kinase (Homo sapiens, UniProt Q9NWZ3) (assay: IRAK4 kinase activity test (KinEASE-STK S1 HTRF kit)). Conditions: 2.5 nM kinase, 1 μM biotinylated polypeptide substrate, 7 μM ATP, 37° C. 120 min.
T1 sequence (Q9NWZ3 1-460): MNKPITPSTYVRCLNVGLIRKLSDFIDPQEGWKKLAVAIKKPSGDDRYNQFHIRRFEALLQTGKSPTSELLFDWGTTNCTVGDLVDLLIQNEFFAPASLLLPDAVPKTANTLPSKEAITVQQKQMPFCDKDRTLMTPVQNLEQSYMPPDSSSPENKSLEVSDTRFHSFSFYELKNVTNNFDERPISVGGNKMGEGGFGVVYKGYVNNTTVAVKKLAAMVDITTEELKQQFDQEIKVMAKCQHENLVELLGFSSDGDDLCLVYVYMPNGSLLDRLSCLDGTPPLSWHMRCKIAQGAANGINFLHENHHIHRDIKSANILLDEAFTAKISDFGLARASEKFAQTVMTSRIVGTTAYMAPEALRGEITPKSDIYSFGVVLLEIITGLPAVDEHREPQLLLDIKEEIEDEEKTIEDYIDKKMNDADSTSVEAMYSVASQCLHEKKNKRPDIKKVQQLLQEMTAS
Format: biochemical
Protocol: KinEASE-STK S1 serine/threonine kinase kit (Cisbio) was used to detect the inhibitory effect of the compound on IRAK4 kinase activity. The specific method was: the compound was dissolved in dimethyl sulfoxide, and then it was diluted with the buffer solution of the kit by equal gradient to make the final concentration range of the tested compound in the reaction system 10000 nM-0.038 nM, then 2.5 nM kinase, 1 μM biotinylated polypeptide substrate and 7 μM adenosine triphosphate (ATP) were added in sequence and incubated at 37° C. for 120 min. Subsequently, anti-phosphorylated serine/threonine antibody coupled with europium element compound and modified XL665 streptavidin were added to the reaction system to terminate the reaction. After incubating at room temperature for 1 h, the fluorescence intensity of each well at the emission wavelength of 620 nm and 665 nm and the excitation wavelength of 337 nm was determined in HTRF mode on the microplate reader EnVision(PerkinElmer), the ratio value was calculated using the formula Ratio=(665 nm/620 nm)×10^4. By comparing with the fluorescence intensity ratio of the control group, the inhibition rate of the compound at each concentration was calculated, and then the IC50 value of the compound was obtained by fitting the nonlinear curve with the logarithmic concentration-inhibition rate by GraphPad Prism 7.

`COc1cc2nn(C3CCN(CCC4CCC5(CC4)CCN(C(=O)c4cccc(N6CCC(=O)NC6=O)c4)CC5)CC3)cc2cc1NC(=O)c1cccc(C(F)(F)F)n1` [Example 47, N-(2-(1-(2-(3-(3-(2,4-dioxotetrahydro-pyrimidin-1 (2H)-yl)benzoyl)-3-azaspiro[5.5]undec-9-yl)ethyl)piperidin-4-yl)-6-methoxy-2H-in-dazol-5-yl)-6-(tri-fluoromethyl) pyridinecarbox-amide] and `CCOc1ccc(C(=O)N2CCC3(CCC(CCN4CCC(n5cc6cc(NC(=O)c7cccc(C(F)(F)F)n7)c(C(C)(C)O)cc6n5)CC4)CC3)CC2)cc1N1CCC(=O)NC1=O` [Example 24] are within 1.5-fold of each other in IC50: 34.2 nM for the first, 34.6 nM for the second.

`COc1cc2nn(C3CCN(CCCCCNC(=O)c4ccc(OC)c(N5CCC(=O)NC5=O)c4)CC3)cc2cc1NC(=O)c1cccc(C(F)(F)F)n1` [Example 4, N-(2-(1-(5-(3-(2,4-dioxotetrahydropyrimidin-1 (2H)-yl)-4-methoxybenzamido)pentyl)piperidin-4-yl)-6-methoxy-2H-indazol-5-yl)-6-(trifluoromethyl) pyridinecarboxamide] and `COc1cc2nn(C3CCN(CCOCCNC(=O)c4ccc(OC)c(N5CCC(=O)NC5=O)c4)CC3)cc2cc1NC(=O)c1cccc(C(F)(F)F)n1` [Example 5, N-(2-(1-(2-(2-(3-(2,4-dioxotetrahydropyrim-idin-1 (2H)-yl)-4-methoxybenz-amido)ethoxy)ethyl)piperidin-4-yl)-6-me-thoxy-2H-indazol-5-yl)-6-(trifluoromethyl) pyridinecarboxamide] are within 1.5-fold of each other in IC50: 12.2 nM for the first, 9.1 nM for the second.

Compared with `COc1cc2nn(C3CCN(CCOCCOCCNC(=O)c4ccc(OC)c(N5CCC(=O)NC5=O)c4)CC3)cc2cc1NC(=O)c1cccc(C(F)(F)F)n1` [Example 8, N-(2-(1-(2-(2-(2-(3-(2,4-dioxotetrahydropyrimidin-1 (2H)-yl)-4-methoxybenz-amido)ethoxy)ethoxy)ethyl)piperidin-4-yl)-6-methoxy-2H-indazol-5-yl)-6-(trifluoro-methyl) pyridin-carboxamide], `COc1cc2nn(C3CCN(CCN4CCN(C(=O)c5ccc(OC)c(N6CCC(=O)NC6=O)c5)CC4)CC3)cc2cc1NC(=O)c1cccc(C(F)(F)F)n1` [Example 14, N-(2-(1-(2-(4-(3-(2,4-dioxotetrahydropyrimidin-1 (2H)-yl)-4-methoxybenzoyl)piperazin-1-yl)ethyl)piperidin-4-yl)-6-methoxy-2H-indazol-5-yl)-6-(trifluoromethyl) pyridinecarboxamide] is 1.5-fold lower in IC50: 10.5 nM for the first, 6.9 nM for the second. The second is the more potent here.

Compared with `COc1cc2nn(C3CCC4(CC3)CCN(CC3CCN(C(=O)c5ccc(Cl)c(N6CCC(=O)NC6=O)c5)CC3)CC4)cc2cc1NC(=O)c1cccc(C(F)(F)F)n1` [Example 57, N-(2-(3-((1-(4-chloro-3-(2,4-dioxotetrahydro-pyrimidin-1 (2H)-yl)benzoyl)piperidin-4-yl)methyl)-3-azaspiro [5.5]undec-9-yl)-6-methoxy-2H-inda-zol-5-yl)-6-(triflu-oromethyl) pyridinecarbox-amide], `COc1cc2nn([C@H]3CC[C@@H](N4CCC5(CCN(C(=O)c6ccc(Cl)c(N7CCC(=O)NC7=O)c6)CC5)CC4)CC3)cc2cc1NC(=O)c1cccc(C(F)(F)F)n1` [Example 59, N-(2-((1s,4s)-4-(9-(4-chloro-3-(2,4-dioxotetrahydro-pyrimidin-1 (2H)-yl)benzoyl)-3,9-diazaspiro[5.5]undec-3-yl)cyclohexyl)-6-methoxy-2H-inda-zol-5-yl)-6-(trifluoro-methyl) pyridinecarbox-amide] is 2.9-fold higher in IC50: 3.8 nM for the first, 11 nM for the second. The first is the more potent here.

Compared with `CN(C[C@H]1CC[C@H](n2cc3cc(NC(=O)c4cccc(C(F)(F)F)n4)c(C(C)(C)O)cc3n2)CC1)C1CCC2(CC1)CCN(C(=O)c1ccc(Cl)c(N3CCC(=O)NC3=O)c1)CC2` [Example 63], `CC(C)(O)c1cc2nn(C3CCN(CCC4CCC5(CC4)CCN(C(=O)c4ccc(C(F)(F)F)c(N6CCC(=O)NC6=O)c4)CC5)CC3)cc2cc1NC(=O)c1cccc(C(F)(F)F)n1` [Example 38, N-(2-(1-(2-(3-(3-(2,4-dioxotetrahydro-pyrimidin-1 (2H)-yl)-4-(trifluoro-methyl)benzoyl)-3-azaspiro[5.5]undec-9-yl)ethyl)piperidin-4-yl)-6-(2-hydroxyprop-2-yl)-2H-indazol-5-yl)-6-(trifluoro-methyl) pyridinecarbox-amide] is 7.8-fold higher in IC50: 4.4 nM for the first, 34.5 nM for the second. The first is the more potent here.

`COc1cc2nn([C@H]3CC[C@H](CN(C)CCC4CCN(C(=O)c5ccc(F)c(C6CCC(=O)NC6=O)c5)CC4)CC3)cc2cc1NC(=O)c1cccc(C(F)(F)F)n1` (stereo partly drawn) [Example 52] and `CC(C)(O)c1cc2nn(C3CCN(CCCC4CCN(C(=O)c5ccc(Cl)c(N6CCC(=O)NC6=O)c5)CC4)CC3)cc2cc1NC(=O)c1cccc(C(F)(F)F)n1` [Example 29] are within 1.5-fold of each other in IC50: 9.2 nM for the first, 8.6 nM for the second.

`COc1ccc(C(=O)N2CC3(CCN(CCN4CCC(n5cc6cc(NC(=O)c7cccc(C(F)(F)F)n7)c(C(C)(C)O)cc6n5)CC4)CC3)C2)cc1N1CCC(=O)NC1=O` [Example 13, N-(2-(1-(2-(2-(3-(2,4-dioxotetrahydropyrimidin-1 (2H)-yl)-4-methoxybenzoyl)-2,7-diazaspiro [3.5]non-7-yl)ethyl)piperidin-4-yl)-6-(2-hydroxyprop-2-yl)-2H-indazol-5-yl)-6-(trifluoro-methyl) pyridinecarboxamide] and `COc1cc2nn(C3CCN(CCN4CC5(CCN(C(=O)c6ccc(OC)c(N7CCC(=O)NC7=O)c6)CC5)C4)CC3)cc2cc1NC(=O)c1cccc(C(F)(F)F)n1` [Example 15, N-(2-(1-(2-(7-(3-(2,4-dioxo-tetrahydropyrim-idin-1 (2H)-yl)-4-methoxy-benzoyl)-2,7-diazaspiro [3.5]non-2-yl)ethyl)piperidin-4-yl)-6-methoxy-2H-in-dazol-5-yl)-6-(tri-fluoromethyl) pyridinecarbox-amide] are within 1.5-fold of each other in IC50: 7.9 nM for the first, 6 nM for the second.

Compared with `CC(C)(O)c1cc2nn(C3CCN(CCC4CCC5(CC4)CCN(C(=O)c4ccc(OC(F)(F)F)c(N6CCC(=O)NC6=O)c4)CC5)CC3)cc2cc1NC(=O)c1cccc(C(F)(F)F)n1` [Example 37], `O=C1CCN(c2cc(C(=O)N3CCC4(CCC(CN5CCC(n6cc7cc(NC(=O)c8cccc(C(F)(F)F)n8)c(OC(F)(F)F)cc7n6)CC5)CC4)CC3)ccc2Cl)C(=O)N1` [Example 61, N-(2-(1-((3-(4-chloro-3-(2,4-dioxotetrahydro-pyrimidin-1 (2H)-yl)benzoyl)-3-azaspiro [5.5]undec-9-yl)methyl)piperidin-4-yl)-6-(trifluoromethoxy)-2H-indazol-5-yl)-6-(trifluoro-methyl) pyridinecarbox-amide] is 4.2-fold higher in IC50: 30.5 nM for the first, 128 nM for the second. The first is the more potent here.

What follows are compounds tested against T2, IRAK4 protein in THP-1 cells (Homo sapiens, UniProt Q9NWZ3) (assay: Degradation of IRAK4 in THP-1 cells (Western blot)). Conditions: 24 hours, compound 1-3000 nM.
T2 construct: endogenous in cells; host or cells: THP-1
T2 sequence (Q9NWZ3 1-460): T1 sequence (Q9NWZ3 1-460)
Format: cell-based
Protocol: Each well of the 24-well cell culture plate was inoculated with 0.95 mL THP-1 cells (stem cell bank of Chinese academy of sciences) with a cell density of 5×10^5 cells/well. The cell plate was placed in a 5% carbon dioxide incubator and cultured overnight at 37° C., then 50 μL compound in dimethyl sulfoxide was added. The final concentration of the compound was in the range of 1-3000 nM. After continuous cultivation for 24 hours, the cells were collected into a 1.5 mL centrifuge tube, centrifuged at 1000 rpm and 4° C. for 5 minutes. Cell precipitation was cleaned twice with 1-DPBS, resuspended cells were lysed with 200 μL lysate (cell lysate was Western and IP cell lysate (Beyotime), supplemented with 1 mM mixture of phenylmethylsulfonyl fluoride and protease inhibitor (Beyotime)), left on ice for 30 minutes, then centrifuged at 14000 g at 4° C. for 10 minutes, and the supernatant was taken to detect IRAK4 protein level by Western blot.
Western blot method: The total protein concentration in the supernatant of cell lysis was determined by BCA protein quantitative kit (Tiangen). According to the concentration of total protein detected by BCA, the supernatant was adjusted to 0.2 μg/μL with PBS and 5× SDS-PAGE protein loading buffer (Beyotime), bathed in water at 100° C. for 10 minutes, then placed in ice bath for 5 minutes, centrifuged at 14000 g and 4° C. for 5 minutes, and then collected as WB loading sample. Prefabricated glue (KeyGEN) was used for protein electrophoresis with a loading amount of 10 μL (total protein 2 μg). After Tris-MOPS-SDS electrophoresis solution (Adamas), 120V constant pressure electrophoresis was performed. After electrophoresis, the protein on the adhesive strip was transferred to PVDF membrane with a constant current of […] for 50 minutes. After the membrane was transferred, the membrane was placed in 1×QuickBlock blocking buffer (Beyotime) and incubated for 30 minutes at room temperature. After blocking, PVDF membranes were incubated with IRAK4 primary antibody (Abcam) overnight at 4°, the membranes were washed with TBST buffer (2.4 g Tris, 8.8 g NaCl, 1.5 mL Tween 20, pH adjusted to 7.4, constant volume to 1 L) for 30 minutes, incubated with secondary antibody (Abcam) for 2 hours at room temperature, finally incubated with Clarity Western ECL Substrate(BIO-RAD) for 5 minutes for luminescence development, chemiluminescence imaging system (Clinx, chemiScope 6200 Touch) for development and protein mapping photography. The protein map was analyzed by Clinx chemiluminescence analysis software for grayscale values. Using the formula: grayscale correction value=(target protein grayscale value/corresponding internal reference grayscale value)×10^3, the grayscale correction value of each sample was calculated. The degradation rate was calculated by comparing with the grayscale correction value of the control group. Furthermore, DC50 and Dmax values of the compound were obtained by the nonlinear curve fitting with the logarithmic concentration-inhibition rate by GraphPad Prism 7.

For `COc1cc2nn(C3CCN(CCC4CCC5(CC4)CCN(C(=O)c4cccc(N6CCC(=O)NC6=O)c4)CC5)CC3)cc2cc1NC(=O)c1cccc(C(F)(F)F)n1` [Example 47, N-(2-(1-(2-(3-(3-(2,4-dioxotetrahydro-pyrimidin-1 (2H)-yl)benzoyl)-3-azaspiro[5.5]undec-9-yl)ethyl)piperidin-4-yl)-6-methoxy-2H-in-dazol-5-yl)-6-(tri-fluoromethyl) pyridinecarbox-amide], the DC50 was 5.4 nM.

`COc1cc2nn(C3CCN(CCC4CCC5(CC4)CCN(C(=O)c4cccc(N6CCC(=O)NC6=O)c4)CC5)CC3)cc2cc1NC(=O)c1cccc(C(F)(F)F)n1` [Example 47, N-(2-(1-(2-(3-(3-(2,4-dioxotetrahydro-pyrimidin-1 (2H)-yl)benzoyl)-3-azaspiro[5.5]undec-9-yl)ethyl)piperidin-4-yl)-6-methoxy-2H-in-dazol-5-yl)-6-(tri-fluoromethyl) pyridinecarbox-amide] gave a Dmax of 98.3%.

Source: patent publication US20230234936A1, “COMPOUND FOR TARGETING AND DEGRADING PROTEIN, AND PREPARATION METHOD THEREFOR AND USE THEREOF” (SHANGHAI LEADINGTAC PHARMACEUTICAL CO., LTD., priority 2020, published 2023)
